Results from patent US4472304A, “(Amido)N-substituted bleomycins, salts thereof and process for preparation thereof” (Nippon Kayaku Kabushiki Kaisha, priority 1981, dated 1984).

Legend:
[1] = system: Mycobacterium smegmatis ATCC 607; test: Antimicrobial activity against Mycobacterium smegmatis ATCC 607 (agar plate-cylinder); assay type: cell-based; conditions: standard bleomycin A2 (copper-free) assumed 1,000 mcg potency/mg
Protocol: (§1) 2. ANT[…] MYC[…] ATCC 607 AND BACILLUS SUBTILIS
(§2) The antimicrobial activity was tested against the captioned test organisms by the method of agar plate-cylinder. The activity was recorded on the assumption that the activity of standard sample of bleomycin A2 (copper-free form) is 1,000 mcg poteney/mg.

Bacillus subtilis = test: Antimicrobial activity against Bacillus subtilis (agar plate-cylinder); assay type: cell-based; conditions: standard bleomycin A2 (copper-free) assumed 1,000 mcg potency/mg
Protocol: as §1, §2

HeLa S3 cells = test: Growth inhibitory activity against cultured HeLa S3 cells; assay type: cell-based; conditions: 3 days
Protocol: 3. GROWTH INHIBITORY ACTIVITY AGAINST CULTURED HELA S3 CELLS
HeLa S3 cells were inoculated into a medium (MEM with 10% bovine serum) placed in a plastic petri dish. Two days thereafter, a bleomycin was added to the dish. After 3 days of breeding, the number of cells were counted. The percentage growth inhibition was calculated using the following equation:
Percentage inhibition (%)=100×(B-A)/(B-C) where A is the final number of cells after 3 days from the addition of test sample, B is the final number of cells in the control without addition of the test smaple, and C is the number of cells at the time of addition of the test sample.

[2] = CDF1/SLC male mice, s.c. once a day for 10 days, Behrens-Karber, daily dose
Protocol: From the mortality during the administration period, LD50 (daily dose) was determined by the method of Behrens-Karber.

pulmonary fibrosis = test: Pulmonary toxicity (pulmonary fibrosis) in mice; conditions: for Incidence: Number of mice with pulmonary fibrosis (%) / Incidence: Number of mice with pulmonary fibrosis / Grade: Total score of pulmonary fibrosis/total number of samples / Grade: Total score of pulmonary fibrosis/total number of samples (%): ICR mice, 5 mg/kg i.p. once a day for 10 days; for Incidence: Number of mice with pulmonary fibrosis (%) / Incidence: Number of mice with pulmonary fibrosis: 5 weeks observation; for Incidence: Number of mice with pulmonary fibrosis: mice with fibrosis/total; for Grade: Total score of pulmonary fibrosis/total number of samples / Grade: Total score of pulmonary fibrosis/total number of samples (%): points 0, 1, 2, 4, 6; for Ratio (by comparison with "Bleomycin Complex"): versus Bleomycin Complex

Row | Compound | Antimicrobial potency of Cu-free compound against Mycobacterium smegmatis ATCC 607 [1] [mcg potency/mg] | Antimicrobial potency of Cu-free compound against Bacillus subtilis (Bacillus subtilis) [mcg potency/mg] | 50% Growth inhibitory concentration of Cu-free compd. against cultured HeLaS3 cells (ID50) (HeLa S3 cells) [mg/L] | LD50 during administration period of 10 consecutive days [2] [mg/kg/day] | Incidence: Number of mice with pulmonary fibrosis (%) (pulmonary fibrosis) | Incidence: Number of mice with pulmonary fibrosis (pulmonary fibrosis) | Grade: Total score of pulmonary fibrosis/total number of samples (pulmonary fibrosis) | Grade: Total score of pulmonary fibrosis/total number of samples (%) (pulmonary fibrosis) | Ratio (by comparison with "Bleomycin Complex") (pulmonary fibrosis)
1 | 3-((S)-1'-phenylethylamino)propylamino-(amido)N--[1,6-dimethyl-heptyl]-BLM [Compound 32] | 39956 | 298 | 0.83 | – | – | – | – | – | –
2 | 4-Guanidinobutylamino-(amido)N--[1',6'-dimethylheptyl]-BLM [Compound 8] | 24880 | 950 | 0.62 | – | – | – | – | – | –
3 | Cc1c(N)nc(C(CC(N)=O)NCC(N)C(=O)NCCCNC(C)c2ccccc2)nc1C(=O)NC(C(=O)NC(C)C(O)C(C)C(=O)NC(C(=O)NCCc1nc(-c2nc(C(=O)NCCC[N+](C)(C)CCCN(Cc3ccccc3)Cc3ccccc3)cs2)cs1)C(C)O)C(OC1OC(CO)C(O)C(O)C1OC1OC(CO)C(O)C(OC(N)=O)C1O)c1cnc[nH]1 [Compound 52, 3-{N,N--dimethyl-N--[dibenzylamino)propyl]amino}-propylamino-(amido)N--[3-((S)-1'-phenyl)aminopropyl]-BLM] | 21371 | 2372 | – | 13.9 | 0 | 0/9 | 0/27 | 0 | 0
4 | CCCCCCCCNC(=O)C(N)CNC(CC(N)=O)c1nc(N)c(C)c(C(=O)NC(C(=O)NC(C)C(O)C(C)C(=O)NC(C(=O)NCCc2nc(-c3nc(C(=O)NCCC[N+](C)(C)CCCN(Cc4ccccc4)Cc4ccccc4)cs3)cs2)C(C)O)C(OC2OC(CO)C(O)C(O)C2OC2OC(CO)C(O)C(OC(N)=O)C2O)c2cnc[nH]2)n1 (centres unmarked) [Compound 53, 3-{N,N--dimethyl-N--[3-(dibenzylamino)propyl]amino}-propylamino-(amido)N--[n-octyl]-BLM] | 40703 | 595 | – | 15.0 | 0 | 0/9 | 0/27 | 0 | 0
5 | CCCCN(CCCC)CCCNC(=O)C(N)CNC(CC(N)=O)c1nc(N)c(C)c(C(=O)NC(C(=O)NC(C)C(O)C(C)C(=O)NC(C(=O)NCCc2nc(-c3nc(C(=O)NCCC[N+](C)(C)CCCN(Cc4ccccc4)Cc4ccccc4)cs3)cs2)C(C)O)C(OC2OC(CO)C(O)C(O)C2OC2OC(CO)C(O)C(OC(N)=O)C2O)c2cnc[nH]2)n1 (centres unmarked) [Compound 54] | 32633 | 2663 | – | – | 0 | 0/9 | 0/27 | 0 | 0
6 | CC[N+](CC)(CCCNC(=O)c1csc(-c2csc(CCNC(=O)C(NC(=O)C(C)C(O)C(C)NC(=O)C(NC(=O)c3nc(C(CC(N)=O)NCC(N)C(=O)NCCCNC(C)c4ccccc4)nc(N)c3C)C(OC3OC(CO)C(O)C(O)C3OC3OC(CO)C(O)C(OC(N)=O)C3O)c3cnc[nH]3)C(C)O)n2)n1)CCCN(Cc1ccccc1)Cc1ccccc1 [Compound 55, 3-{N,N--diethyl-N--[3-(dibenzylamino)propyl]amino}-propyl-amino-(amido)N--[3-((S)-1'-phenylethyl)aminopropyl]-BLM] | 20840 | 2150 | – | – | 0 | 0/9 | 0/27 | 0 | 0
7 | CCCCCCCCNC(=O)C(N)CNC(CC(N)=O)c1nc(N)c(C)c(C(=O)NC(C(=O)NC(C)C(O)C(C)C(=O)NC(C(=O)NCCc2nc(-c3nc(C(=O)NCCC[N+](CC)(CC)CCCN(Cc4ccccc4)Cc4ccccc4)cs3)cs2)C(C)O)C(OC2OC(CO)C(O)C(O)C2OC2OC(CO)C(O)C(OC(N)=O)C2O)c2cnc[nH]2)n1 (centres unmarked) [Compound 56, 3-{N,N--diethyl-N--[3-(dibenzylamino)propyl]amino}propylamino-(amido)N--[octyl]-BLM] | 41380 | 520 | – | – | 0 | 0/9 | 0/27 | 0 | 0
8 | CCCCN(CCCC)CCCNC(=O)C(N)CNC(CC(N)=O)c1nc(N)c(C)c(C(=O)NC(C(=O)NC(C)C(O)C(C)C(=O)NC(C(=O)NCCc2nc(-c3nc(C(=O)NCCCN(C)CCCNCC4CCCCCCC4)cs3)cs2)C(C)O)C(OC2OC(CO)C(O)C(O)C2OC2OC(CO)C(O)C(OC(N)=O)C2O)c2cnc[nH]2)n1 (centres unmarked) [Compound 58, 3-[N--methyl-N--[3-(cyclooctylmethylamino)propyl]amino}-propylamino-(amido)N--[3-(di-n-butyamino)propyl]-BLM] | 62418 | 5518 | – | – | 0 | 0/9 | 0/27 | 0 | 0
9 | CCCCCCCCNC(=O)C(N)CNC(CC(N)=O)c1nc(N)c(C)c(C(=O)NC(C(=O)NC(C)C(O)C(C)C(=O)NC(C(=O)NCCc2nc(-c3nc(C(=O)NCCCN(C)CCCNCC4CCCCCCC4)cs3)cs2)C(C)O)C(OC2OC(CO)C(O)C(O)C2OC2OC(CO)C(O)C(OC(N)=O)C2O)c2cnc[nH]2)n1 (centres unmarked) [Compound 59, 3-{N--methyl-N--[3-(cyclooctylmethylamino)propyl]amino}propyl-amino-(amido)N--[octyl]-BLM] | 65733 | 5473 | – | – | 0 | 0/9 | 0/27 | 0 | 0
10 | Cc1c(N)nc(C(CC(N)=O)NCC(N)C(=O)NCCCNC(C)c2ccccc2)nc1C(=O)NC(C(=O)NC(C)C(O)C(C)C(=O)NC(C(=O)NCCc1nc(-c2nc(C(=O)NCCCN(C)CCCNCC3CCCCCCC3)cs2)cs1)C(C)O)C(OC1OC(CO)C(O)C(O)C1OC1OC(CO)C(O)C(OC(N)=O)C1O)c1cnc[nH]1 [Compound 60, 3-{N--methyl-N--[3-(cyclooctylmethyl)aminopropyl]amino}-propylamino-(amido)N--[3-((S)-1'-phenylethylamino)propyl]-BLM] | 54345 | 7273 | – | – | 0 | 0/9 | 0/27 | 0 | 0
11 | CCCCCCCCNC(=O)C(N)CNC(CC(N)=O)c1nc(N)c(C)c(C(=O)NC(C(=O)NC(C)C(O)C(C)C(=O)NC(C(=O)NCCc2nc(-c3nc(C(=O)NCCCN(C)CCCNCc4ccc(C#N)cc4)cs3)cs2)C(C)O)C(OC2OC(CO)C(O)C(O)C2OC2OC(CO)C(O)C(OC(N)=O)C2O)c2cnc[nH]2)n1 (centres unmarked) [Compound 62, 3-{N--methyl-N--[3-(p-cyanobenzylamino)propyl]amino}propylamino-(amido)N--[octyl]-BLM] | 49270 | 381 | – | – | 0 | 0/9 | 0/27 | 0 | 0
